Holding throughout (type): cell-based
The test system of series [1] is MCF-7 cells. The series is described as follows: FITC-conjugated Annexin V staining, flow cytometric analysis (apoptosis). The settings on record: for HMFI population: 30 min illumination; for HMFI population (Annexin V positive, TP2Py positive): 2µM, 2 hours. The procedure:
MCF-7 cells were plated in 12-well plates (2.10^5 cells/well) and incubated with 2µM of TP2Py for 2h at 37°C. Under specific conditions (see Fig. 12), cells were further incubated with NAC (1mM) for 30 min, Bapta-AM (20µM) for 3h, or CsA (10µM) for 1h at 37°C. After a time illumination of either 30 or 60 min at […] (Mercury lamp (130W; 380-600nm) + excitation filter centered at 452nm (± 45nm)), cells were gently scraped and pooled with medium floating cells. Cells were individualized in PBS-EDTA (10mM) and stained as described by the manufacturer (Roche, Germany). Briefly, the cell pellet was re-suspended in 500µl Annexin V-HEPES solution (10 mM HEPES-NaOH, pH 7.4, 140mM NaCl, 5mM CaCl2) and incubated on ice for 30 min in the dark. Cells were then washed in ice-cold HEPES buffer before analysis. Fluorescence signals of fluorescently labelled (FITC) Annexin V and TP2Py were measured by a FACSCalibur flow cytometer (Becton-Dickinson, Sunnyvale, CA, USA) using FL1 and FL2 detectors, respectively.
Different experiments are summarized below: • MCF-7 cells treated with 2µM TP2Py for 2 hours and then stained with FITC-conjugated Annexin V immediately (Fig.12A) without light exposure; • MCF-7 cells treated with 2µM TP2Py for 2 hours and then stained with FITC-conjugated Annexin V after a time illumination (Exc, 452 nm) of 30 min (Fig.12B); • MCF-7 cells treated with 2µM TP2Py for 2 hours and then stained with FITC-conjugated Annexin V after a time illumination (Exc, 452 nm) of 60 min (Fig.12C); • control MCF-7 cells treated with DMSO (1%) only and illuminated for 30 min before Annexin V staining (Fig.12D); • control MCF-7 cells treated with 1µg/mL actinomycin D (ActD), no illumination before Annexin V staining (Fig.12E); • control MCF-7 cells treated with camptothecin (CPT, 10µM)) (Fig.12F) for 2.5 hours, no illumination before Annexin V staining; • MCF-7 cells treated during 2 hours with 2µM TP2Py and 10µM cyclosporine A (CsA) and illuminated for 30 min before Annexin V staining (Fig.12G); • MCF-7 cells treated during 2 hours with 2µM TP2Py and 1 mM N-Acetyl cysteine (NAC) and illuminated for 30 min before Annexin V staining (Fig.12H); and • MCF-7 cells treated during 2 hours with 2µM TP2Py and 20µM Bapta-am (Fig.12I) and illuminated for 30 min before Annexin V staining.
The horizontal (FL1-H) and vertical (FL2-H) axes correspond to the fluorescence signal of Annexin V and TP2Py, respectively. The percentage of population with a high mean fluorescence signal is indicated in the corresponding quadrant (top right or bottom right in the presence or absence of TP2Py, respectively).

Series [2] deals with HeLa cells. The series is described as follows: Cytophototoxicity by MTT assay under illumination. Conditions: irradiance 60mW/cm^2. A general note: Tetrazolium assays rely on reduction of a dye to a coloured formazan, in cell work by metabolically active cells.
Experimental: (§1) Different experiments were conducted and described below: • MCF7 cells were treated with 2µM of TP2Py or TP3Bzim and exposed to illumination (Fig.9A); • HeLa cells were treated with 2µM of TP2Py or TP3Bzim and exposed to illumination (Fig.9B); • MCF7 cells were treated with TP2Py, 40 min illumination (black circles) or without illumination (white circles) (Fig.9C) • HeLa cells were treated with TP2Py [30 min illumination (black circles) or without illumination (white circles)] or TP3Bzim [15 min illumination (black triangles) or without illumination (white triangles)]
(§2) For each experiment, the source of excitation was a Mercury lamp (130W; 380-600nm) with an excitation filter centered at 452nm (± 45 nm), irradiance, 60mW/cm^2.
(§3) First, the experiment was calibrated by determining the time of illumination exposure which leads to the toxicity 50%, for a given concentration of TPA (2 µM) and for an irradiance of 60mW/cm^2. […] This characteristic time was then used for the plots shown in Fig. 9C and 9D which represent the cell viability as a function of TPA concentration (in HeLa and MCF-7 cells, respectively).
Series [3] is described as follows: Dark toxicity (MTT assay, without illumination). Conditions: human; MCF-7 cells, tested in dark; read-out: TC50 (toxicity concentration 50%), dark toxicity.
Experimental: as §1, §2, §3

For the compound `C[n+]1ccc(/C=C/c2ccc(N(c3ccccc3)c3ccc(/C=C/c4cc[n+](C)cc4)cc3)cc2)cc1` [TP2Py], the figures for the HMFI population in series [1] (2µM TP2Py with 10µM cyclosporine A (CsA)), in series [1] (2µM TP2Py with 20µM Bapta-am) and in series [1] (2µM TP2Py with 1 mM N-Acetyl cysteine (NAC)) were 13%, 19% and 25%, respectively. Moreover, the “HMFI population (Annexin V positive, TP2Py positive)” value in series [1] (30 min illumination (452 nm, 40 MW.cm^-2)) was 29%; in series [1] (60 min illumination), 38%; in series [1] (without light illumination) it was 4.3%. Further, the “illumination time required for the same TC50 under illumination” value in series [2] (Mercury lamp, filter 452nm) is 30 min. Also, the corresponding light dose in series [2] worked out at 108 J/cm^2. Besides, the CC50 in series [3] was more than 30 µM.

For the origin of these results see patent EP2711366A1, “Cationic triphenylamine derivatives activable by visible and Infra Red light for inducing and imaging apoptosis in cancer cells” (Institut Curie, priority 2012, dated 2014).
